Data published in patent US20220133894A1, “BISPHOSPHONATE-LINKED COMPOUNDS” (OREGON HEALTH & SCIENCE UNIVERSITY, priority 2019, published 2022).

Tests used:
[1] = tested on: LNCaP cells; assay: SRB growth inhibition assay, LNCaP; format: cell-based, human; settings: 10 μM enzalutamide, 10 μM KBU2046 added to control or enzalutamide treated cells, 72 hours
Description: LNCaP or VCaP cells cultured in hormone free media were treated with R1881 (R), KBU2046 (46) and/or enzalutamide (E). (FIGS. 3A and 3B) Effects on AR-responsive gene expression. PSA expression was measured by qRT/PCR, normalized to GAPDH and expressed as a percent of control cells (N=3 replicates); * denotes P<0.05 for groups separated by bar. (FIGS. 3C and 3D) Effects on cell growth. Three day growth assays were performed. Data are the number of viable cells, expressed as % of control (N=3 replicates); * P<0.05 compared to control. (E) Effects on AR activation. Western blots of nuclear (N) and cytoplasmic (C) preparations of cell extracts were probed for AR, laminin 1 or α-tubulin. (FIGS. 3F and 3G) Effects on tumor outgrowth after androgen deprivation therapy. LNCaP/AR-luc cells were implanted subcutaneously (N=6 mice/cohort) or orthotopic (N=15 mice/cohort were implanted; N=5 yielded tumors) into castrate mice, treatment with KBU2046 began as noted, and weekly IVIS imaging performed. Data are tumor size, expressed as luminescence intensity. All data are expressed as mean±SEM.
Enzalutamide mediated growth inhibition was assessed using Sulforhodamine B (SRB) growth inhibition assays, were performed as previously described (49). In brief, LNCaP and VCaP cells were pre-incubated in charcoal-striped medium for 48 hours and then seeded (1.9×10^4) in 96-well plates. […]

[2] = tested on: MDA-MB-231 human breast cancer cells; assay: 7 day colony formation assay, chemotherapy with or without KBU2046; format: cell-based
Description: To assess the impact of cytotoxic chemotherapy on PCa growth kinetics seven-day soft agar colony formation assays and three-day MTT cell growth inhibition assays were performed as described by us ([…] et al., Cancer Lett 352, 179-186 (2014)). MTT assays were in replicates of N=3, and were repeated, soft agar assays were in replicates of N=2 and are presented as mean number of colonies, expressed as percent of untreated controls. For PC3-M PCa and MDA-MB-231 triple negative breast cancer cells, data are the mean±SD (N=2 replicates) number of colonies in 7 day colony formation assays. All data are expressed as the percentage of untreated control cells. Cells were treated with 10 μM KBU2046 or vehicle (CO), and the indicated concentration and type of chemotherapy.

[3] = tested on: PC3-M cells; assay: PCa subcutaneous implantation, tumor growth; format: in vivo; settings: oral 80 mg KBU2046/kg, weekly intraperitoneal docetaxel 20 mg/kg, KBU2046 added to control or docetaxel treated mice
Description: FIG. 1A depicts the effect of chemotherapy on the growth of androgen independent PC3-M PCa cells in vitro. Data are the mean±SEM (N=3 replicates) of cell viability in a 3 day growth assay in the presence of 10 μM KBU2046 or vehicle (control) treated with docetaxel or cabazitaxel. FIG. 1B depicts the effect of chemotherapy on the growth of androgen independent PCa cells in vivo. Mice received subcutaneous implants of PC3-M cells, were monitored until tumors were detectable (250 mm^3), and then treated daily with oral 80 mg KBU2046/kg (46) or vehicle (CO) and with weekly intraperitoneal docetaxel (doc) at 0 or 20 mg/kg, beginning on day 1, and tumor size measured. Data are mean±SEM, with N=20 mice per cohort.
PCa subcutaneous implantation: 2.5×10^5 PC3-M cells in sterile PBS were implanted into the right flank of 6-7 week old male athymic nude mice (Charles River) and tumor growth measurements were performed twice a week as previously described by us (Gordon et al., Chemotherapy-induced monoamine oxidase expression in prostate carcinoma functions as a cytoprotective resistance enzyme and associates with clinical outcomes. PLoS One 9, e104271 (2014)). […] Tumor measurements were obtained in a blinded fashion, and tumor volumes were calculated with the following formula: length×(width)^2×0.5.

[4] = tested on: LNCaP/AR-luc cells; assay: Castration resistant PCa subcutaneous implantation, tumor outgrowth; format: in vivo, mice; settings: subcutaneous implants, 80 mg/kg KBU2046 oral, treatment from 4 weeks
Description: To complete our assessments of the androgen related paradigm, the effect of KBU2046 on resistance to hormone therapy was evaluated. The outgrowth of LNCaP/AR-luc cells in castrate mice is routinely utilized as a model to emulate the transition to a castration resistant phenotype (Tran et al., Science 324, 787-790 (2009)). In this model, tumor outgrowth is detectable ˜8 weeks post implantation, and growth kinetics are typically monitored until 16 weeks post implantation. […]
LNCaP or VCaP cells cultured in hormone free media were treated with R1881 (R), KBU2046 (46) and/or enzalutamide (E). […] PSA expression was measured by qRT/PCR, normalized to GAPDH and expressed as a percent of control cells (N=3 replicates); * denotes P<0.05 for groups separated by bar. […] Data are the number of viable cells, expressed as % of control (N=3 replicates); * P<0.05 compared to control. […] Data are tumor size, expressed as luminescence intensity. All data are expressed as mean±SEM.
Castration resistant PCa subcutaneous implantation: 6-7 week old male athymic mice received trans-scrotal bilateral orchiectomy with a single incision in the midline of scrotums under general anesthesia and then allowed to recover for 10 days. […] Twice weekly tumor measurements were performed and androgen receptor activity monitored biweekly through IVIS imaging.

O=C1c2ccccc2OCC1c1ccc(F)cc1 (stereo not shown) [KBU2046, 3-(4-fluorophenyl)chroman-4-one]
cell growth [1]: no significant effect | effect on activity of adriamycin ([2]; 10 μM KBU2046, MDA-MB-231 cells, FIG. 13): does not inhibit | effect on activity of vinblastine ([2]; 10 μM KBU2046, MDA-MB-231 cells, FIG. 15): does not inhibit | effect on activity of taxol ([2]; 10 μM KBU2046, MDA-MB-231 cells, FIG. 17): does not inhibit | interference upon cytotoxic action of adriamycin, taxol and vinblastine ([2]; KBU2046 co-administered, MDA-MB-231 cells): lack of interference | tumor growth [3]: did not significantly affect | tumor growth (outgrowth in castrate mice) [4]: did not alter
